Read-outs that look alike come from different tables or passages of the source.
Assays:
human EP1 receptor = target: T1, human EP1 receptor (Homo sapiens, UniProt P34995); assay: Radioligand ([3H]PGE2) competition displacement binding, human EP1 receptor membranes; settings: [3H]PGE2 displacement, read-out: pKi EP1 (converted)
T1 construct: expressed in transfected cells
T1 sequence (P34995 1-402): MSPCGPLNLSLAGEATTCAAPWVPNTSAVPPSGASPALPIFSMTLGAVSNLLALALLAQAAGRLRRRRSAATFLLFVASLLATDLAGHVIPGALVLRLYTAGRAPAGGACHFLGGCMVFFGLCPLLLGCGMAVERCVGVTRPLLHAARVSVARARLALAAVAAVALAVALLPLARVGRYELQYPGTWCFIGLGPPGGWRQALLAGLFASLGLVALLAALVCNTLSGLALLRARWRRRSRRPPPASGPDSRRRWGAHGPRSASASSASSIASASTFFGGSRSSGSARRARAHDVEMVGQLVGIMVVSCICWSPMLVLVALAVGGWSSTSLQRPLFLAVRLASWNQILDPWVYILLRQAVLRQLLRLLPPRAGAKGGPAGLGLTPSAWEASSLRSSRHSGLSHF
Experimental: Membranes were prepared from cells stably transfected with human EP receptor cDNA. In brief, cells were cultured to confluency, scraped from culture flasks, and centrifuged (800 g, 8 minutes, 4° C.). Cells were twice washed in ice cold homogenisation buffer containing 10 mMTris-HCl, 1 mM EDTA.2Na, 250 mM sucrose, 1 mM PMSF, 0.3 mM indomethacin, pH 7.4, homogenised and re-centrifuged as before. The supernatant was stored on ice and pellets re-homogenised and re-spun. Supernatants were pooled and centrifuged at 40000 g, 10 minutes, 4° C. Resultant membrane pellets were stored at −80° C. until use.
For assay, membranes expressing human EP4, EP3, EP2 or EP1 receptors were incubated in Millipore (MHVBN45) plates containing assay buffer, radiolabelled [^3H]PGE2 and 0.1 to 10 000 nM concentrations of compounds. Incubations were performed at suitable temperatures and for suitable times to allow equilibrium to be reached. Non-specific binding was determined in the presence of 10 uM PGE2. Bound and free radiolabel was separated by vacuum manifold filtration using appropriate wash buffers, and bound radiolabel was determined by scintillation counting. Constituents of each of the buffers are included in table 4 below.
The affinity or pKi of each compound for each receptor was calculated from the concentration causing 50% radioligand displacement (IC50) using the Cheng-Prusoff equation: [formula] […]

human EP2 receptor = target: T2, human EP2 receptor (Homo sapiens, UniProt P43116); assay: cAMP production in HEK cells stably expressing the human EP2 receptor; assay type: cell-based; settings: 15 min stimulation, 4 experiments
T2 construct: expressed in transfected cells; host or cells: HEK cells (HEK-EP2)
Experimental: The following describes an in vitro assay to determine the effect of compounds on cyclase production, that is, to determine their functional efficacy at the EP2 receptor.
HEK cells stably expressing the human EP2 receptor were used for these assays. HEK-EP2 cells were cultured in 96-well, poly-L-lysine coated plates at a density of 50,000 cells/well, and grown to confluence in humidified […] at 37° C. Culture medium was DMEM supplemented with 10% foetal bovine serum, 100 U/ml penicillin, […], 2.5 µg/ml fungizone, 2 mM glutamine, 250 µg/ml geneticin and 200 µg/ml zeocin.
On reaching confluence, culture media was rinsed off using DMEM with no additions, before 175 µl assay buffer (DMEM containing 1 mM 3-isobutyl-1-methylxanthine and 3 µM indomethacin) was added to each well. This was allowed to incubate for 1 hr before the cells were stimulated with the test compounds (in triplicate) at final concentrations of 10^−9M to 10^−5M for 15 minutes. The assay was terminated by the addition of 25 µl 1M hydrochloric acid. Plates were then frozen for a minimum of 12 hours or until required for radioligand displacement assay.
Plates were thawed quickly at 37° C., and neutralised with 25 µl 1M sodium hydroxide. 30 µl of supernatant was transferred to 96-well Millipore (MAFNOB) plates coated with 0.1% Polyethylenimine. These supernatants were diluted by addition of 90[…]1 cAMP assay buffer (50 mM Tris, 5 mM EDTA, pH 7.0). A cAMP standard curve (10^−11M to 10^−5M) was constructed. 15 µl of 3′:5′-cAMP-dependent protein kinase (final concentration 8 µg/well), and 15 µl [^3H]-cAMP (final concentration 2 nM/well) were added to each well.
Plates were incubated on ice for 2 hours, before bound and free radiolabel were separated by vacuum filtration harvesting on the Millipore manifold, using ice cold water as the termination buffer. Filter plates were allowed to dry overnight, before addition of 50 µl Microscint. Radioactivity was determined using the Microbeta Trilux scintillation counter. cAMP accumulation was determined from the standard curve, and the values plotted as pmoles cAMP/well.

[1] = tested on: IL-2 production by OKT3 activated T cells; assay: Lymphocyte assay: IL-2 production by anti-CD3 (OKT3) stimulated T cells; assay type: cell-based, human; settings: Homo sapiens, T-cell, 24 h, inhibition of IL-2 production
Description: (§1) Lymphocytes are mononuclear leukocytes, which participate in specific immune responses to foreign antigens and in the manifestation of auto-immune diseases. T lymphocytes produce IL-2, a key factor for lymphocyte activation and proliferation, in response to antigen stimulation via the CD3-T cell receptor complex and the pathway involved in this response is the NF-AT. […] A lymphocyte assay was designed to model this response and to determine the effect of test compound on IL-2 production by anti-CD3-stimulated T cells isolated from peripheral blood. This assay uses a sub-optimal dose of an anti-CD3 monoclonal antibody (OKT3, 25 ng/ml) immobilised to a 96-well plate to stimulate a T cell response. The level of IL-2 released into the cell culture supernatants was quantified using a standard sandwich ELISA. Similarly, other cytokines such as TNFα and IFN-γ can also be measured in the same assay.
Human peripheral blood mononuclear cells from healthy volunteers were isolated from whole blood by Ficoll-Hypaque density centrifugation and adherence to plastic. The non-adherent lymphocyte fraction was used to set up the lymphocyte assay and the adherent monocytes were then recovered by scraping and subsequently used in the monocyte assay.
(§2) Lymphocytes were then seeded to a 96-well plate pre-coated with anti-CD3 monoclonal antibody (OKT3) at 25 ng/ml and immediately, the test compounds (Peak 1, mixture 1 acid; Peak 1, mixture 2 acid; AH-13205 racemate; PGE2) in appropriate dilutions were added to corresponding wells according to the experimental design. The plate was incubated for 24 hours at 37° C. with 5% CO2 in air and supernatants were recovered for ELISA analysis at the end of incubation period. The levels of IFN-γ was assessed by using the ProteoPlex 16 well human cytokine array assay kit according to the manufacturer's instruction.

[2] = tested on: interferon gamma release by lymphocytes; assay: Lymphocyte assay: interferon gamma release; assay type: cell-based, human; settings: two donors (FIG. 11)
Description: as §1, with “assay. […]” for “assay.”
as §2, with “The plate was incubated for 24 hours at 37° C. with 5% CO2 in air and supernatants were recovered for ELISA analysis at the end of incubation period.” left out

[3] = log scale, read-out: Mean Log (EC50) (converted)
[4] = mean of four donors (FIG. 9, table 7), read-out: Mean EC50
[5] = log scale, mean of four donors (FIG. 9, table 7), read-out: Mean Log (EC50) (converted)

T2 sequence (P43116 whole entry): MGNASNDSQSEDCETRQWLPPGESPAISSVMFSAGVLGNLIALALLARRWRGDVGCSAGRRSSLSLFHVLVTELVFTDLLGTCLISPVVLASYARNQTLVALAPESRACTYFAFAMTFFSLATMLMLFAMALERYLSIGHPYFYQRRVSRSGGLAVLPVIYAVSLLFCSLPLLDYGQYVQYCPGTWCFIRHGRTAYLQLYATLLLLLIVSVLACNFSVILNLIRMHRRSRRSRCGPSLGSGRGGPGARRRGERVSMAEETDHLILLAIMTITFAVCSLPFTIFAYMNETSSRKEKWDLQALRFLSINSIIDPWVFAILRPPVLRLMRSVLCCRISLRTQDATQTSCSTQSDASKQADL

| Ki (human EP1 receptor) [nM] | EC50 (human EP2 receptor; [3]) [nM] | EC50 [1, 4] [nM] | EC50 [1, 5] [nM] | EC50 (human EP2 receptor; read-out: Mean EC50) [nM] | EC50 ([1]; mean of three to five donors (FIG. 10, table 8), read-out: Mean EC50) [nM] | EC50 ([1]; log scale, mean of three to five donors (FIG. 10, table 8), read-out: Mean Log (EC50) (converted)) [nM] | Compound | interferon gamma release [2] |
| --- | --- | --- | --- | --- | --- | --- | --- | --- |
| 10000 | 32.4 | 2820 | 2820 |  |  |  | CCCCCC(O)c1ccc(C2CCC(=O)C2CCCCCCC(=O)O)cc1 (racemic) [AH13205, (±)-trans-2-[4-(1-hydroxyhexyl)phenyl]-5-oxo-cyclopentaneheptanoic acid, reference compound] |  |
|  | 9.77 | 986 | 986 | 10 | 1320 | 1320 | CCCCC[C@H](O)c1ccc([C@H]2CCC(=O)[C@@H]2CCCCCCC(=O)O)cc1 (single isomer, unassigned) [Peak 1, Mixture 1 acid] | concentration-dependently inhibit interferon gamma release |
|  |  |  |  | 56 |  |  | CCCCC[C@@H](O)c1ccc([C@H]2CCC(=O)[C@@H]2CCCCCCC(=O)O)cc1 (single isomer, unassigned) [Peak 1, Mixture 2 acid] |  |
